Assay results reported in patent publication US20120142771A1, “BIPHENYLACETAMIDE DERIVATIVE” (Dainippon Sumitomo Pharma Co., Ltd., priority 2008, published 2012).
Read-outs that look alike come from different tables or passages of the source.

Key:
[1] = test system: maximum electroshock seizure (MES) model; test: Maximum electroshock seizure (MES) model test; format: in vivo, mice; settings: for responders at 50 mg/kg / responders at 100 mg/kg: Mus musculus, po, 1 h, read-out: MES (positive number/tested number) (converted); for responders at 50 mg/kg / responders at 100 mg/kg / MES (positive number/tested number): Slc: ddY male mice, 3 per group, electrical stimulation 1 hour after administration, inhibition of hind limb extension; for anticonvulsant action in maximum electroshock seizure (MES) model test: mice, oral 50 or 100 mg/kg, 1 hour after administration
In short: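 Tonic hind-limb extension was elicited by corneal electroshock (60 Hz, 25 mA, 0.2 s) 1 h after oral dosing. Test compounds were given at 50 or 100 mg/kg to groups of 3 male Slc: ddY mice (20-30 g), vehicle controls receiving 0.5% tragacanth or 0.5% methylcellulose solution.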

[2] = test system: subcutaneously pentetrazol-injected model (scPTZ); test: Subcutaneously pentetrazol-injected model (scPTZ) test; format: in vivo, mice; settings: pentetrazol 85 mg/kg s.c. after 1 hour; for responders at 50 mg/kg / responders at 100 mg/kg: Mus musculus, po, 1 h, read-out: scPTZ (positive number/tested number) (converted); for responders at 50 mg/kg / responders at 100 mg/kg / scPTZ (positive number/tested number): Slc: ddY male mice, 3 per group, observed 30 minutes for clonic convulsion; for anticonvulsant action in subcutaneously pentetrazol-injected model (scPTZ) test: mice, oral 50 or 100 mg/kg
In short: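 Pentetrazol (85 mg/kg, s.c.) was injected one hour after oral test compound at 50 or 100 mg/kg in groups of three male Slc:ddY mice weighing 20-30 g; vehicle controls got 0.5% tragacanth or 0.5% methylcellulose.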

[3] = test system: amygdala-kindling model; test: Amygdala-kindling model in rats; format: in vivo
Text: Test 3: Test with Amygdala-Kindling Model in Rats
Test 3 evaluates the anticonvulsant action of medicaments in rats, besides mice in Tests 1 and 2. Animal model (kindling model) used herein is a very similar model to clinical findings of focal onset seizures (i.e. simple partial seizure, complex partial seizure, and secondarily generalized tonic-clonic seizure), which is known to provide excellent clinical prediction. A chronic electrode was implanted in the cortex (frontal and posterior regions) and the amygdala of Slc: Wistar male rats (body weight 250-300 g). One week after the above operation, electrical stimulation (50 Hz, 400 μA, 1 second) into the amygdala was conducted once a day for about two weeks. The stimulation condition was determined according to the method of Loscher et al. [Epilepsy Res., 40: 63-77 (2000)]. The stimulation was continued until the seizure stage 5 in the seizure severity stages according to the method of Racine et al. [Motor seizure. Electroenceph. Clin. Neurophysiol., 32:281-294 (1972)] was observed 10 consecutive times. Kindling model was thus completed. Then, test compounds (100 mg/kg) were orally administered to this model. After an hour of administration, the rats were evaluated based on three parameters, i.e., a threshold stimulus current to induce seizure (i.e. seizure threshold), the duration of afterdischrage observed on an electroencephalogram, and seizure severity (stage scores 1-5). The results of the seizure threshold and the afterdischarge duration were shown as average percentage of change from the pretreatment value obtained before the administration of each test compound. To the control rats, 0.5% tragacanth solution was administered. Minus means decreased or shortened.

[4] = test system: 6 Hz psychomotor seizure model; test: 6 Hz psychomotor seizure model; format: in vivo, mice; settings: mice; for ED50: 6 Hz psychomotor seizure model, read-out: ED50; for ED50 / 6 Hz (Positive number/tested number): oral; for efficacy in 6 Hz psychomotor seizure model: oral administration at a dose of 100 mg/kg; for 6 Hz (Positive number/tested number): dose 100 mg/kg, 30 minutes or 1 hour after administration
Experimental: Test 4: Test of 6 Hz Psychomotor Seizure Model
Similar to Tests 1 and 2, Test 4 evaluates the anticonvulsant action of medicaments. However, unlike Tests 1 and 2, the animal model used herein represents clinical phenotypes of seizures resistant to existing antiepileptic drugs. […] After 30 minutes or an hour of administration, their corneas were electrically stimulated (6 Hz, 32 mA, 3 seconds) to induce symptoms of myoclonus in their forelimbs, Straub tail, and immobility. […] To the control mice, 0.5% tragacanth solution, 0.5% methylcellulose solution, or olive oil was administered.

[5] = test system: Slc: ddY male mice; test: Rotarod performance test (motor disturbance); format: in vivo; settings: 1 hour after administration, 10 mice
Experimental: Test 5: Rotarod Performance Test
Test 5 evaluates whether motor disturbance is caused by medicaments. On the day before the test, Slc: ddY male mice (body weight 20-30 g) were trained so that they could walk on a rotarod apparatus for 3 minutes without falling, wherein a cylinder of 4 cm diameter is rotated with a speed of 13 rotations per minute. Test compounds were orally administered to a group consisting of 10 mice. […] When the mice fell down within 100 seconds because of disturbed motor coordination, such mice were counted as positive. To the control mice, 0.5% methylcellulose solution was administered.

SMILES	responders at 50 mg/kg ([1]; 50 mg/kg oral)	responders at 100 mg/kg ([1]; 100 mg/kg oral)	anticonvulsant action in maximum electroshock seizure (MES) model test [1]	responders at 50 mg/kg ([2]; 50 mg/kg oral)	responders at 100 mg/kg ([2]; 100 mg/kg oral)	anticonvulsant action in subcutaneously pentetrazol-injected model (scPTZ) test [2]	ED50 ([4]; Mus musculus)	efficacy in 6 Hz psychomotor seizure model [4]	6 Hz (Positive number/tested number) [4]	further results
NC(=O)Cc1ccccc1-c1cccc(F)c1 [Example 25, 2-(3′-fluorobiphenyl-2-yl)acetamide]	100%	100%	anticonvulsant action was observed	100%	100%	anticonvulsant action was observed	61.9 mg/kg	potent efficacy	10/10/100	Seizure threshold (uA) Δ % change ([3]; 100 mg/kg oral, 1 hour after administration, average percentage of change from pretreatment value): 69.4%; Afterdischarge duration (sec) Δ % change ([3]; 100 mg/kg oral, 1 hour after administration, change from pretreatment value, minus means shortened): −100%; Seizure severity score ([3]; 100 mg/kg oral, 1 hour after administration, stage scores 1-5): 0.0; efficacy against the amygdala-kindling model ([3]; oral administration at a dose of 100 mg/kg): potent efficacy; The rate of mice which fell within 100 seconds (%) ([5]; 100 mg/kg oral): 0%; The rate of mice which fell within 100 seconds (%) ([5]; 200 mg/kg oral): 10%; The rate of mice which fell within 100 seconds (%) ([5]; 300 mg/kg oral): 60%; The rate of mice which fell within 100 seconds (%) ([5]; 400 mg/kg oral): 90%
NC(=O)Cc1cc(F)ccc1-c1ccccc1F [Example 46, 2-(2′,4-difluorobiphenyl-2-yl)acetamide]	66.7%	100%		0%	100%		120 mg/kg		5/10/100	The rate of mice which fell within 100 seconds (%) ([5]; 100 mg/kg oral): 20%; The rate of mice which fell within 100 seconds (%) ([5]; 200 mg/kg oral): 20%; The rate of mice which fell within 100 seconds (%) ([5]; 300 mg/kg oral): 60%; The rate of mice which fell within 100 seconds (%) ([5]; 400 mg/kg oral): 90%
NC(=O)Cc1ccccc1-c1cc(Cl)cc(Cl)c1 [Example 71, 2-(3′,5′-dichlorobiphenyl-2-yl)acetamide]	66.7%	100%	anticonvulsant action was observed	66.7%	66.7%	anticonvulsant action was observed	82.8 mg/kg		7/10/100	The rate of mice which fell within 100 seconds (%) ([5]; 100 mg/kg oral): 0%; The rate of mice which fell within 100 seconds (%) ([5]; 200 mg/kg oral): 20%; The rate of mice which fell within 100 seconds (%) ([5]; 300 mg/kg oral): 30%; The rate of mice which fell within 100 seconds (%) ([5]; 400 mg/kg oral): 70%
NC(=O)Cc1ccccc1-c1cc(Cl)ccc1C(F)(F)F [Example 91, 2-[5′-chloro-2′-(trifluoromethyl)biphenyl-2-yl]acetamide]	100%	100%	anticonvulsant action was observed	66.7%	66.7%	anticonvulsant action was observed		potent efficacy	5/5/100	
NC(=O)Cc1ccccc1-c1cc(OC(F)(F)F)ccc1F [Example 93, 2-[2′-fluoro-5′-(trifluoromethoxy)biphenyl-2-yl]acetamide]	100%	100%		33.3%	100%				2/5/100	
NC(=O)C(O)c1ccccc1-c1cccc(F)c1 (stereo not shown) [Example 178, 2-(3′-fluorobiphenyl-2-yl)-2-hydroxyacetamide]	66.7%	100%	anticonvulsant action was observed	100%	100%	anticonvulsant action was observed	117 mg/kg		5/10/100	
NC(=O)C(O)c1ccccc1-c1cc(Cl)cc(Cl)c1 (stereo not shown) [Example 183, 2-(3′,5′-dichlorobiphenyl-2-yl)-2-hydroxyacetamide]	100%	100%	anticonvulsant action was observed	66.7%	66.7%	anticonvulsant action was observed			4/5/100	
NC(=O)C(O)c1ccccc1-c1cc(F)ccc1Cl (stereo not shown) [Example 185, 2-(2′-chloro-5′-fluorobiphenyl-2-yl)-2-hydroxyacetamide]	66.7%	100%	anticonvulsant action was observed	66.7%	100%	anticonvulsant action was observed		potent efficacy	5/5/100	
NC(=O)C(O)c1cc(F)ccc1-c1cc(Cl)cc(Cl)c1 (stereo not shown) [Example 189, 2-(3′,5′-dichloro-4-fluorobiphenyl-2-yl)-2-hydroxyacetamide]	100%	66.7%		33.3%	66.7%				3/5/100	
NC(=O)C(O)c1ccccc1-c1ccccc1Cl (stereo not shown) [Example 190, 2-(2′-chlorobiphenyl-2-yl)-2-hydroxyacetamide]	66.7%	100%	anticonvulsant action was observed	66.7%	66.7%	anticonvulsant action was observed		potent efficacy	5/5/100	
NC(=O)[C@@H](O)c1ccccc1-c1ccccc1 [Example 208, 2-(biphenyl-2-yl)-2S-hydroxyacetamide]									7/10/100	MES (positive number/tested number) ([1]; 50 mg/kg oral): 2/3; MES (positive number/tested number) ([1]; 100 mg/kg oral): 3/3; scPTZ (positive number/tested number) ([2]; 50 mg/kg oral): 1/3; scPTZ (positive number/tested number) ([2]; 100 mg/kg oral): 2/3; ED50 [4]: 90.6 mg/kg
